Measured values as given in US9592294B2, “Polyalkoxylated alcohols as excipients for pharmaceutical compositions” (Dow Global Technologies LLC, priority 2013, dated 2017).

Assays:
[1] = Turbidity of wet-milled reference drug suspensions without excipient; type: physicochemical; conditions: 26 mg/L Probucol, assuming linear relationship between undissolved drug and turbidity
Description: Moreover, wet-milled drug suspensions were analyzed as reference samples to determine the turbidity of the drugs in the absence of excipients. […] 78.6 g of yttrium-stabilized zirconia grinding beads (YTZ from Tosoh Corp., diameter: 0.5 mm) were provided in a 50 mL plastic bottle and 10.0 g deionized water and 0.54 g of the respective drug were added. In the case of Probucol, a dispersant, Daxad 19LS (from Hampshire Chem. Corp.), was added in an amount corresponding to 1 wt. % of the mass of Probucol to counteract coating of the milling beads by the drug. The resulting mixture was placed on a rotating ball mill for 24 h. Subsequently 11.06 g of deionized water were added, the suspension was shaken extensively and then separated from the milling beads. An aliquot of 0.20 g of this suspension was further diluted with 49.80 g of deionized water to yield a suspension having a nominal drug concentration of 0.01 wt. %, which was then analyzed for its turbidity using a Nepheloskan Ascent instrument from ThermoLabsystem. […] Table 5 summarizes the measured turbidity of the wet milled reference drug suspensions along with the average particle size of the suspended drug particles measured using a 90 Plus Particle Size Analyzer instrument from Brookhaven Instruments Corp. and literature values for the aqueous solubility of the drugs.

[2] = phosphate buffer pH 7.0, terpene alcohol ethoxylates 20 wt. %, versus buffer alone; cited from earlier work

SMILES	Turbidity calculated for a Probucol suspension [1] [RNU]	Increase of saturation drug concentration (factor) [2]
CC(C)(Sc1cc(C(C)(C)C)c(O)c(C(C)(C)C)c1)Sc1cc(C(C)(C)C)c(O)c(C(C)(C)C)c1 [Probucol]	~24	
Nc1ccc(S(=O)(=O)Nc2nccs2)cc1 [sulfathiazole]		about 14
